Legend:
EcBdh = molecular target: T1, EcBdh (Enterobacter cloacae, UniProt G8FSA9); assay: NADH consumption at […] nm; type: biochemical; settings: 0.25 mM NADH, 25 mM acetoin, 100 mM potassium phosphate pH 7.0; racemic acetoin
T1 construct: gene dar; full length, N-terminal His6 and TEV site (cleavage not described), gene amplified from Z. mobilis strain BC-11B, expressed in Zymomonas mobilis 9C, purified

SmBdh = molecular target: T2, SmBdh (Serratia marcescens, UniProt H9XP47); assay: X-ray crystal structure, […] A; type: binding
T2 construct: gene budC; full length, N-terminal His6 and TEV site after start codon (cleavage not described), codon-optimized, expressed in Zymomonas mobilis 9C; tetramer, site completed by Gln247 of the symmetry-related chain
T2 sequence (H9XP47 2-251): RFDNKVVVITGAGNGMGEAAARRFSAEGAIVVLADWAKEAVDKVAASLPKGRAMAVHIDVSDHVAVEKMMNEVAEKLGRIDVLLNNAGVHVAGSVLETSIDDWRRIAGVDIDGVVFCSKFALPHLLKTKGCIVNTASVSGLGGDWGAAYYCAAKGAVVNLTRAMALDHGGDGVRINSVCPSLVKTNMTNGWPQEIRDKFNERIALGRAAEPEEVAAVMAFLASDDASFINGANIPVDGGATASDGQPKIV

crystal structure = molecular target: the molecule itself; assay: crystal structure

T1 sequence (G8FSA9 1-256): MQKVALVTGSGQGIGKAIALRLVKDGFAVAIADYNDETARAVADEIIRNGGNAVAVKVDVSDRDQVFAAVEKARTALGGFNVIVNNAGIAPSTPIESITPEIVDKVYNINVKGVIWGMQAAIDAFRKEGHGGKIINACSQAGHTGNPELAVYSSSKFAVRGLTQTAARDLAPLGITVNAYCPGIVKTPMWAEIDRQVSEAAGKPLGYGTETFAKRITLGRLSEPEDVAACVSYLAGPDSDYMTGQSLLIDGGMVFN

Molecule: CC(=O)C(C)O (racemic) [acetoin]
- NADH consumption at 340 nm (EcBdh): Proteins were expressed in the Z. mobilis 9C strain, purified to homogeneity

Molecule: CC(=O)[C@@H](C)O [(3R)-acetoin]
- X-ray crystal structure, 2.0 A (SmBdh; NAD+ bound, active site of closed molecule A, modelled together with (3S)-acetoin from racemate): both (3R)- and (3S)-acetoin molecules bound in the pocket

Molecule: CC(=O)[C@H](C)O [(3S)-acetoin]
- X-ray crystal structure, 2.0 A (SmBdh; NAD+ bound, active site of closed molecule A, modelled together with (3R)-acetoin from racemate): both (3R)- and (3S)-acetoin molecules bound in the pocket

Molecule: Nc1ncnc2c1ncn2[C@@H]1O[C@H](COP(=O)(O)OP(=O)(O)O)[C@@H](O)[C@H]1O [ADP]
- X-ray crystal structure, 2.0 A (SmBdh; cofactor site of open molecule B, only NAD+ was added in crystallization): the corresponding space is occupied by only adenine diphosphate

Molecule: NC(=O)C1=CN([C@@H]2O[C@H](COP(=O)(O)OP(=O)(O)OC[C@H]3O[C@@H](n4cnc5c(N)ncnc54)[C@H](O)[C@@H]3O)[C@@H](O)[C@H]2O)C=CC1 [NADH]
- NADH consumption at 340 nm (EcBdh): subjected to activity analysis using the NADH consumption assay

Molecule: NC(=O)c1ccc[n+]([C@@H]2O[C@H](COP(=O)(O)OP(=O)(O)OC[C@H]3O[C@@H](n4cnc5c(N)ncnc54)[C@H](O)[C@@H]3O)[C@@H](O)[C@H]2O)c1 [NAD^+]
- X-ray crystal structure, 2.0 A (SmBdh; cofactor site of closed molecule A, with acetoin): locate NAD ^+ cofactor molecule and acetoin molecules in protein molecule A

B1: Serratia marcescens 2,3-butanediol dehydrogenase, wild type (N-term SmBdh) (enzyme, UniProt H9XP47 1-251, looked up)
chain: MRFDNKVVVITGAGNGMGEAAARRFSAEGAIVVLADWAKEAVDKVAASLPKGRAMAVHIDVSDHVAVEKMMNEVAEKLGRIDVLLNNAGVHVAGSVLETSIDDWRRIAGVDIDGVVFCSKFALPHLLKTKGCIVNTASVSGLGGDWGAAYYCAAKGAVVNLTRAMALDHGGDGVRINSVCPSLVKTNMTNGWPQEIRDKFNERIALGRAAEPEEVAAVMAFLASDDASFINGANIPVDGGATASDGQPKIV
notes: tag and TEV site placed immediately after the start codon; also called WT SmBdh; WT SmBDH; source: Z. mobilis strain 9C, purified (HisTrap, size exclusion chromatography)
- stoichiometry N (crystal structure): 4

B2: Serratia marcescens 2,3-butanediol dehydrogenase Q247A mutant (enzyme)
chain: MRFDNKVVVITGAGNGMGEAAARRFSAEGAIVVLADWAKEAVDKVAASLPKGRAMAVHIDVSDHVAVEKMMNEVAEKLGRIDVLLNNAGVHVAGSVLETSIDDWRRIAGVDIDGVVFCSKFALPHLLKTKGCIVNTASVSGLGGDWGAAYYCAAKGAVVNLTRAMALDHGGDGVRINSVCPSLVKTNMTNGWPQEIRDKFNERIALGRAAEPEEVAAVMAFLASDDASFINGANIPVDGGATASDGAPKIV
notes: also called SmBdh Q247A; Q247A SmBdh; source: Z. mobilis strain 9C, purified (HisTrap, size exclusion chromatography)
- binding result (crystal structure): binds

B3: Serratia marcescens 2,3-butanediol dehydrogenase Q247A + V139Q double mutant (enzyme)
chain: MRFDNKVVVITGAGNGMGEAAARRFSAEGAIVVLADWAKEAVDKVAASLPKGRAMAVHIDVSDHVAVEKMMNEVAEKLGRIDVLLNNAGVHVAGSVLETSIDDWRRIAGVDIDGVVFCSKFALPHLLKTKGCIVNTASQSGLGGDWGAAYYCAAKGAVVNLTRAMALDHGGDGVRINSVCPSLVKTNMTNGWPQEIRDKFNERIALGRAAEPEEVAAVMAFLASDDASFINGANIPVDGGATASDGAPKIV
notes: also called SmBdh Q247A + V139Q; Q247A + V139Q SmBdh; source: Z. mobilis strain 9C, purified (HisTrap, size exclusion chromatography)
- binding result (crystal structure): binds

Source: paper PMC7656694 (Biotechnology for Biofuels, 2020)
